Read-outs that look alike come from different tables or passages of the source.
Tests used:
YANK3 = biological target: T1, YANK3 (Homo sapiens, UniProt Q86UX6); test: KINOMEScan; format: binding; settings: YANK3, 1 µM; read-out: Percent Control
T1 construct: purchased Eurofins DiscoverX (KINOMEScan service)

TA1535 = test: Background bacterial cytotoxicity assay; design: species or system Salmonella; key to Flag: A cytotoxicity value of less than 60% is flagged and the compound is considered as toxic (denoted as Cytox.); A hyphen (-) denotes no cytotoxicity at the respective concentration
Procedure: (§1) Compounds were assessed for mutagenicity at the Eurofins Panlabs in 384-well plates using four Salmonella strains: TA98, to probe for frameshift mutation (with quercetin as control), TA100 and TA1535, to probe for base pair insertions/deletions (with streptozotocin as control), and TA1537, to probe for frameshift mutations (with aminacridine as control) as previously described.[78] Each compound was incubated at 37 °C for 96 h at four different concentrations (5, 10, 50, and 100 μM), with each concentration tested using 48 replicates, both with and without rat liver S9 metabolic activation. A concurrent bacterial cytotoxicity assay was run at 0.6, 1.2, 2.5, 5, 10, 25, 50, and 100 μM to rule out false negatives. Bacterial cytotoxicity was expressed as percent of control growth (OD650). Compounds with growth of less than 60% control were flagged and considered bacterial cytotoxic. […] Significances of the positive counts between the treatment and control were determined using a one-tailed Fisher’s exact test.

TA100 [1] = test: Background bacterial cytotoxicity assay; design: species or system Salmonella; key to Flag: A cytotoxicity value of less than 60% is flagged and the compound is considered as toxic (denoted as Cytox.); A hyphen (-) denotes no cytotoxicity at the respective concentration
Procedure: as §1

TA98 = test: Background bacterial cytotoxicity assay; design: species or system Salmonella; key to Flag: A cytotoxicity value of less than 60% is flagged and the compound is considered as toxic (denoted as Cytox.); A hyphen (-) denotes no cytotoxicity at the respective concentration
Procedure: as §1

BMPR1A = biological target: T2, BMPR1A (Homo sapiens, UniProt P36894); test: KINOMEScan; format: binding; settings: read-out: Percent Control
T2 construct: purchased Eurofins DiscoverX (KINOMEscan)
Text: (§2) Percent control was mapped onto the kinome tree using TREEspot.

TA1537 = tested on: TA1537; design: species or system Salmonella;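 on Count (# of wells): Revertant-positive wells among 48 replicate wells per concentration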
Procedure: as §1, with “Each compound was incubated at 37 °C for 96 h at four different concentrations (5, 10, 50, and 100 μM), with each concentration tested using 48 replicates, both with and without rat liver S9 metabolic activation.” left out

TA100 [2] = tested on: TA100; design: species or system Salmonella;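 on Count (# of wells): Revertant-positive wells among 48 replicate wells per concentration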
Procedure: as §1, with “Each compound was incubated at 37 °C for 96 h at four different concentrations (5, 10, 50, and 100 μM), with each concentration tested using 48 replicates, both with and without rat liver S9 metabolic activation.” left out

BMX = biological target: T3, BMX (Homo sapiens, UniProt P51813); test: KINOMEScan; format: binding; settings: read-out: Percent Control
T3 construct: purchased Eurofins DiscoverX (KINOMEscan)
T3 sequence (P51813 whole entry): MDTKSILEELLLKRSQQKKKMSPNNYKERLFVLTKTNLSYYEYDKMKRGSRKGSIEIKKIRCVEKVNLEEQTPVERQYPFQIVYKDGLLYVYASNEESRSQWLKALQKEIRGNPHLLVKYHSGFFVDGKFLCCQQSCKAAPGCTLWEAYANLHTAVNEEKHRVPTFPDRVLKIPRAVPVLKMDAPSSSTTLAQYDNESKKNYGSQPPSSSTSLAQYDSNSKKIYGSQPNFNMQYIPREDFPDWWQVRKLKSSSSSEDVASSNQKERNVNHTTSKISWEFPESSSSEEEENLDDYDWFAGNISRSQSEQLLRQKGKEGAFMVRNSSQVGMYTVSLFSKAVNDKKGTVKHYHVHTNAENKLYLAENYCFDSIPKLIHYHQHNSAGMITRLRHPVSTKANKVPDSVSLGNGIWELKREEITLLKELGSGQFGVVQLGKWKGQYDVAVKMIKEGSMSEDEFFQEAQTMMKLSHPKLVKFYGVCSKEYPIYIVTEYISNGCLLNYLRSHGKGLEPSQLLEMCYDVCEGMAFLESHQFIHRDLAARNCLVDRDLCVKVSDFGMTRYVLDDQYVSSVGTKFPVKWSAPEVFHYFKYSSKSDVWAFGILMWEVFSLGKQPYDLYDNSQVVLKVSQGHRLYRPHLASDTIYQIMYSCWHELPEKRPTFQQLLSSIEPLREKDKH
Text: as §2

T1 sequence (Q86UX6 whole entry): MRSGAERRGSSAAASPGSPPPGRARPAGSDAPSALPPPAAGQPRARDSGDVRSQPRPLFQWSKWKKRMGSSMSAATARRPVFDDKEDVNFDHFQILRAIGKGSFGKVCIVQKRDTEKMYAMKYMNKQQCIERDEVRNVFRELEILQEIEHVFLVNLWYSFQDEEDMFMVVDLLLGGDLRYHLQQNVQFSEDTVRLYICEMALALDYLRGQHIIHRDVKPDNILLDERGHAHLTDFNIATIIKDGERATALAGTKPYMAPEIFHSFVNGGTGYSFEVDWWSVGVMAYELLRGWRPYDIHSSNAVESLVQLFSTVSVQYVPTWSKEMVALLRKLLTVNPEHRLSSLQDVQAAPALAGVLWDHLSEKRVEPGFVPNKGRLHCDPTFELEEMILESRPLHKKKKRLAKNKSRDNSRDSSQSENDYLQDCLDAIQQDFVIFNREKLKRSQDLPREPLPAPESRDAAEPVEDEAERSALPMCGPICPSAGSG
T2 sequence (P36894 24-532): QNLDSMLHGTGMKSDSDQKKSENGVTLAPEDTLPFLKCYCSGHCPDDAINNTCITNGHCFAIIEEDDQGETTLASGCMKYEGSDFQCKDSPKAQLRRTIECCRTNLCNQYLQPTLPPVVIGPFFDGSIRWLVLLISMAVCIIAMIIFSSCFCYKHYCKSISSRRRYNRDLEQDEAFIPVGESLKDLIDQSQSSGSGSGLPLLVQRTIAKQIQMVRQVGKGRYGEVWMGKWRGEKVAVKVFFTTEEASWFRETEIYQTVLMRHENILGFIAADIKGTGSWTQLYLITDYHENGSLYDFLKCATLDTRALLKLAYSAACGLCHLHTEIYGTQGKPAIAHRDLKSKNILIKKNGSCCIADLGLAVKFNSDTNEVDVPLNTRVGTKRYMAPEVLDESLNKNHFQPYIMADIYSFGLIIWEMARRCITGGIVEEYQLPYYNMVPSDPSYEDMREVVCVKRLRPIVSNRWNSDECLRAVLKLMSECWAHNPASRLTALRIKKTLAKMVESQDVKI

COc1cc2ncnc(Nc3cccc(Cl)c3F)c2cc1OCCON1CCN(C)CC1 [Compound 9, N-(3-Chloro-2-fluorophenyl)-7-methoxy-6-(2-((4-methylpiperazin-1-yl)oxy)ethoxy)quinazolin-4-amine]
remaining binding at 1 µM (YANK3): 86% | Flag (TA1535; TA1535-S9, 1.0E-04 M): - | Mean % Control (n = 3) (TA1535; TA1535-S9, 1.0E-04 M): 78.4% | Flag (TA1535; TA1535-S9, 1.0E-05 M): - | Mean % Control (n = 3) (TA1535; TA1535-S9, 1.0E-05 M): 99.4% | Flag (TA1535; TA1535-S9, 1.2E-06 M): - | Mean % Control (n = 3) (TA1535; TA1535-S9, 1.2E-06 M): 120.4% | Flag (TA1535; TA1535-S9, 2.5E-05 M): - | Mean % Control (n = 3) (TA1535; TA1535-S9, 2.5E-05 M): 97.6% | Flag (TA1535; TA1535-S9, 2.5E-06 M): - | Mean % Control (n = 3) (TA1535; TA1535-S9, 2.5E-06 M): 101.2% | Flag (TA1535; TA1535-S9, 5.0E-05 M): - | Mean % Control (n = 3) (TA1535; TA1535-S9, 5.0E-05 M): 85.7% | Flag (TA1535; TA1535-S9, 5.0E-06 M): - | Mean % Control (n = 3) (TA1535; TA1535-S9, 5.0E-06 M): 108.1% | Flag (TA1535; TA1535-S9, 6.0E-07 M): - | Mean % Control (n = 3) (TA1535; TA1535-S9, 6.0E-07 M): 98.9% | Flag (TA100 [1]; TA100-S9, 1.0E-04 M): Cytox. (A cytotoxicity value of less than 60% is flagged and the compound is considered as toxic (denoted as Cytox.)) | Mean % Control (n = 3) (TA100 [1]; TA100-S9, 1.0E-04 M): 34.0% | Flag (TA100 [1]; TA100-S9, 1.0E-05 M): - | Mean % Control (n = 3) (TA100 [1]; TA100-S9, 1.0E-05 M): 90.3% | Flag (TA100 [1]; TA100-S9, 1.2E-06 M): - | Mean % Control (n = 3) (TA100 [1]; TA100-S9, 1.2E-06 M): 91.2% | Flag (TA100 [1]; TA100-S9, 2.5E-05 M): - | Mean % Control (n = 3) (TA100 [1]; TA100-S9, 2.5E-05 M): 80.9% | Flag (TA100 [1]; TA100-S9, 2.5E-06 M): - | Mean % Control (n = 3) (TA100 [1]; TA100-S9, 2.5E-06 M): 89.5% | Flag (TA100 [1]; TA100-S9, 5.0E-05 M): - | Mean % Control (n = 3) (TA100 [1]; TA100-S9, 5.0E-05 M): 67.3% | Flag (TA100 [1]; TA100-S9, 5.0E-06 M): - | Mean % Control (n = 3) (TA100 [1]; TA100-S9, 5.0E-06 M): 93.2% | Flag (TA100 [1]; TA100-S9, 6.0E-07 M): - | Mean % Control (n = 3) (TA100 [1]; TA100-S9, 6.0E-07 M): 91.6% | Flag (TA98; TA98-S9, 1.0E-04 M): - | Mean % Control (n = 3) (TA98; TA98-S9, 1.0E-04 M): 84.2% | Flag (TA98; TA98-S9, 1.0E-05 M): - | Mean % Control (n = 3) (TA98; TA98-S9, 1.0E-05 M): 91.1% | Flag (TA98; TA98-S9, 1.2E-06 M): - | Mean % Control (n = 3) (TA98; TA98-S9, 1.2E-06 M): 92.3% | Flag (TA98; TA98-S9, 2.5E-05 M): - | Mean % Control (n = 3) (TA98; TA98-S9, 2.5E-05 M): 94.8% | Flag (TA98; TA98-S9, 2.5E-06 M): - | Mean % Control (n = 3) (TA98; TA98-S9, 2.5E-06 M): 91.7% | Flag (TA98; TA98-S9, 5.0E-05 M): - | Mean % Control (n = 3) (TA98; TA98-S9, 5.0E-05 M): 87.8% | Flag (TA98; TA98-S9, 5.0E-06 M): - | Mean % Control (n = 3) (TA98; TA98-S9, 5.0E-06 M): 95.7% | Flag (TA98; TA98-S9, 6.0E-07 M): - | Mean % Control (n = 3) (TA98; TA98-S9, 6.0E-07 M): 89.0% | remaining binding at 1 µM (BMPR1A): 90% | Count (# of wells) (TA1537; TA1537+S9, 1.0E-04 M): 1 | Positive Significance (- to +++) (TA1537; TA1537+S9, 1.0E-04 M): - | Count (# of wells) (TA1537; TA1537+S9, 1.0E-05 M): 5 | Positive Significance (- to +++) (TA1537; TA1537+S9, 1.0E-05 M): - | Count (# of wells) (TA1537; TA1537+S9, 5.0E-05 M): 4 | Positive Significance (- to +++) (TA1537; TA1537+S9, 5.0E-05 M): - | Count (# of wells) (TA1537; TA1537+S9, 5.0E-06 M): 3 | Positive Significance (- to +++) (TA1537; TA1537+S9, 5.0E-06 M): - | Count (# of wells) (TA1537; TA1537-S9, 1.0E-04 M): 0 | Positive Significance (- to +++) (TA1537; TA1537-S9, 1.0E-04 M): - | Count (# of wells) (TA1537; TA1537-S9, 1.0E-05 M): 0 | Positive Significance (- to +++) (TA1537; TA1537-S9, 1.0E-05 M): - | Count (# of wells) (TA1537; TA1537-S9, 5.0E-05 M): 0 | Positive Significance (- to +++) (TA1537; TA1537-S9, 5.0E-05 M): - | Count (# of wells) (TA1537; TA1537-S9, 5.0E-06 M): 1 | Positive Significance (- to +++) (TA1537; TA1537-S9, 5.0E-06 M): - | Count (# of wells) (TA100 [2]; TA100+S9, 1.0E-04 M): 0 | Positive Significance (- to +++) (TA100 [2]; TA100+S9, 1.0E-04 M): - | Count (# of wells) (TA100 [2]; TA100+S9, 1.0E-05 M): 3 | Positive Significance (- to +++) (TA100 [2]; TA100+S9, 1.0E-05 M): - | Count (# of wells) (TA100 [2]; TA100+S9, 5.0E-05 M): 0 | Positive Significance (- to +++) (TA100 [2]; TA100+S9, 5.0E-05 M): - | Count (# of wells) (TA100 [2]; TA100+S9, 5.0E-06 M): 3 | Positive Significance (- to +++) (TA100 [2]; TA100+S9, 5.0E-06 M): - | Count (# of wells) (TA100 [2]; TA100-S9, 1.0E-04 M): 0 | Positive Significance (- to +++) (TA100 [2]; TA100-S9, 1.0E-04 M): - | Count (# of wells) (TA100 [2]; TA100-S9, 1.0E-05 M): 4 | Positive Significance (- to +++) (TA100 [2]; TA100-S9, 1.0E-05 M): - | Count (# of wells) (TA100 [2]; TA100-S9, 5.0E-05 M): 0 | Positive Significance (- to +++) (TA100 [2]; TA100-S9, 5.0E-05 M): - | Count (# of wells) (TA100 [2]; TA100-S9, 5.0E-06 M): 1 | Positive Significance (- to +++) (TA100 [2]; TA100-S9, 5.0E-06 M): - | remaining binding at 1 µM (BMX): 93%

Source: article PMC10683025, “Discovery of a Hydroxylamine-Based Brain-Penetrant EGFR Inhibitor for Metastatic Non-Small-Cell Lung Cancer” (Journal of Medicinal Chemistry, 2023)
